What was measured:
[1] = molecular target: T1, human cloned CHRM3 receptor (M3_CHO cells) (Homo sapiens, UniProt P20309); assay: CHRM3 Ca++ Flux Assay (agonist mode, FDSS 7000EX); type: cell-based; conditions: for Emax: Percent Activity measured to EC100 of Carbachol, read-out: M3 FDSS PA; for EC50: agonist mode, geometric mean if tested more than once, read-out: M3 FDSS EC50
T1 construct: expressed in transfected cells; host or cells: CHO-K1
In short: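 CHO-K1 cells stably expressing human M3 or M5 receptor were dye-loaded for at least 1 h in HBSS with 20 mM HEPES and 2.5 mM probenecid, then given 11-point compound doses in triplicate.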

[2] = molecular target: T2, human cloned CHRM4 receptor (M4_CHO cells) (Homo sapiens, UniProt P08173); assay: CHRM4 Ca++ Flux Assay (agonist mode, FDSS 7000EX); type: cell-based; conditions: for Emax: Percent Activity, read-out: M4 FDSS PA; for EC50: geometric mean if tested more than once, read-out: M4 FDSS EC50
T2 construct: expressed in transfected cells; host or cells: CHO-K1
T2 sequence (P08173 1-479): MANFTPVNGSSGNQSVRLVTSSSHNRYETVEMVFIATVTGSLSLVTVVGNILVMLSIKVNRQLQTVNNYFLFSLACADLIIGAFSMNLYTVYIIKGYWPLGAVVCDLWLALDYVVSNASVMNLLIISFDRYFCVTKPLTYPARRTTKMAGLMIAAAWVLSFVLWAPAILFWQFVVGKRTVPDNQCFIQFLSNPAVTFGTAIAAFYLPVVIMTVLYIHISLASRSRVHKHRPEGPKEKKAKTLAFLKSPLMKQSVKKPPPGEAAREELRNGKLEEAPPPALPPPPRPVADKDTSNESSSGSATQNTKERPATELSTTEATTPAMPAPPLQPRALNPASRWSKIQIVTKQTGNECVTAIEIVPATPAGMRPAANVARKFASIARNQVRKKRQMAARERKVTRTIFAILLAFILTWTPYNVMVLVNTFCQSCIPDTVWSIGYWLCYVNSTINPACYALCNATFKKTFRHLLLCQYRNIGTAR
In short: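 Agonist-mode response was expressed as percent of the Carbachol EC100 and fitted with four-parameter nonlinear regression over an 11-point triplicate dose series. Intracellular Ca++ was tracked for 3 min by fluorescent dye in CHO-K1 cells stably expressing human CHRM4. Cells were preincubated 60 min with 20 μM ATP in buffer containing 2.5 mM probenecid.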

T1 sequence (P20309 whole entry): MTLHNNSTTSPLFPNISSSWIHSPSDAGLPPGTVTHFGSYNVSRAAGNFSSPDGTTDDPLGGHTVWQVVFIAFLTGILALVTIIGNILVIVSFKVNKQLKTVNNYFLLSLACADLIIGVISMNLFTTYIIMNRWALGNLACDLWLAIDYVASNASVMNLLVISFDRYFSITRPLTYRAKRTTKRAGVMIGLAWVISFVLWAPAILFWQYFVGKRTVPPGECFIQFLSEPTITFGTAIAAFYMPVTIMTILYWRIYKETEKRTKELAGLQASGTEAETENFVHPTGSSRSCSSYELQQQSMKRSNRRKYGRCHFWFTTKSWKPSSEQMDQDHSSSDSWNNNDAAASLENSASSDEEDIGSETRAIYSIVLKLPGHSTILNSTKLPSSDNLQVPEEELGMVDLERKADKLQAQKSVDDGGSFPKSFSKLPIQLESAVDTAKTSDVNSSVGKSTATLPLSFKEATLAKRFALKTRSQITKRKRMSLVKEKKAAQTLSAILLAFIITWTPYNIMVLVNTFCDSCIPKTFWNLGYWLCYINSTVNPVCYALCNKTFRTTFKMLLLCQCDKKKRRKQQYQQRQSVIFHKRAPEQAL

| Emax [1] | EC50 [1] | Emax [2] | EC50 [2] | SMILES |
| --- | --- | --- | --- | --- |
| 0% | > 25000 nM | 39% | 4 nM | O=C(C1COC1)N1CC2(CC[C@@H](N3CCC(c4ccccc4Oc4nccs4)CC3)C2)C1 [Example 7C, (R)-oxetan-3-yl(6-(4-(2-(thiazol-2-yloxy)phenyl)piperidin-1-yl)-2-azaspiro[3.4]octan-2-yl)methanone] |
| 0% | > 25000 nM | 42% | 27 nM | O=C(C1COC1)N1CC2(CC[C@@H](N3CCC(c4ccccc4OCCOC(F)(F)F)CC3)C2)C1 [Example 7DD, (R)-oxetan-3-yl(6-(4-(2-(2-(trifluoromethoxy)ethoxy)phenyl)piperidin-1-yl)-2-azaspiro[3.4]octan-2-yl)methanone] |
| 0% | > 25000 nM | 47% | 2 nM | O=C(C1COC1)N1CC2(CC[C@@H](N3CCC(c4ccccc4OCCC4COC4)CC3)C2)C1 [Example 7KK, (R)-oxetan-3-yl(6-(4-(2-(2-(oxetan-3-yl)ethoxy)phenyl)piperidin-1-yl)-2-azaspiro[3.4]octan-2-yl)methanone] |
| 0% | > 25000 nM | 35% | 100 nM | O=C(N1CC2(CC[C@H](N3CCC(c4ccccc4C4CCOCC4)CC3)C2)C1)C1(F)CC1 (single isomer, unassigned) [Example 9M] |
| 0% | > 25000 nM | 61% | 9 nM | O=C(C1COC1)N1CC2(CC[C@@H](N3CCC(c4ccccc4OC4CCCC4)CC3)C2)C1 [Example 7G, (R)-(6-(4-(2-(cyclopentyloxy)phenyl)piperidin-1-yl)-2-azaspiro[3.4]octan-2-yl)(oxetan-3-yl)methanone] |
| 0% | > 25000 nM | 61% | 6 nM | O=C(C1COC1)N1CC2(CC[C@@H](N3CCC(c4ccccc4OCCOC4COC4)CC3)C2)C1 [Example 7EE, (R)-oxetan-3-yl(6-(4-(2-(2-(oxetan-3-yloxy)ethoxy)phenyl)piperidin-1-yl)-2-azaspiro[3.4]octan-2-yl)methanone] |
| 0% | > 25000 nM | 83% | 10 nM | Fc1cncc(N2CC3(CC[C@@H](N4CCC(c5ccccc5C5CCOCC5)CC4)C3)C2)c1 [Example 5AA, (R)-2-(5-fluoropyridin-3-yl)-6-(4-(2-(tetrahydro-2H-pyran-4-yl)phenyl)piperidin-1-yl)-2-azaspiro[3.4]octane] |
| 0% | > 25000 nM | 90% | 1 nM | Fc1cccc(C2CCN([C@@H]3CCC4(C3)CN(c3cncnc3)C4)CC2)c1OC1COC1 [Example 5W, (R)-6-(4-(3-fluoro-2-(oxetan-3-yloxy)phenyl)piperidin-1-yl)-2-(pyrimidin-5-yl)-2-azaspiro[3.4]octane] |
| 0% | > 25000 nM | 50% | 9 nM | O=C(C1COC1)N1CC2(CC[C@@H](N3CCC(c4ccccc4OCC4(C(F)(F)F)CC4)CC3)C2)C1 [Example 7II, (R)-oxetan-3-yl(6-(4-(2-((1-(trifluoromethyl)cyclopropyl)methoxy)phenyl)piperidin-1-yl)-2-azaspiro[3.4]octan-2-yl)methanone] |
| 0% | > 25000 nM | 49% | 28 nM | CC(C)(O)COc1ccccc1C1CCN([C@@H]2CCC3(C2)CN(c2ncncn2)C3)CC1 [Example 5U, (R)-1-(2-(1-(2-(1,3,5-triazin-2-yl)-2-azaspiro[3.4]octan-6-yl)piperidin-4-yl)phenoxy)-2-methylpropan-2-ol] |
| 0% | > 25000 nM | 0% | > 25000 nM | COCCOc1ccccc1C1CCN([C@@H]2CCC3(C2)CN(c2cnc(C)cn2)C3)CC1 [Example 5Y, (R)-6-(4-(2-(2-methoxyethoxy)phenyl)piperidin-1-yl)-2-(5-methylpyrazin-2-yl)-2-azaspiro[3.4]octane] |

The remaining lines, values behind:

| SMILES | Emax [1] | EC50 [1] | Emax [2] | EC50 [2] |
| --- | --- | --- | --- | --- |
| c1ccc(C2CCN([C@@H]3CCC4(C3)CN(c3nnco3)C4)CC2)c(C2CCOCC2)c1 [Example 2H, (R)-2-(6-(4-(2-(tetrahydro-2H-pyran-4-yl)phenyl)piperidin-1-yl)-2-azaspiro[3.4]octan-2-yl)-1,3,4-oxadiazole] | 0% | > 25000 nM | 83% | 3 nM |
| c1ccc(C2CCN([C@@H]3CCC4(C3)CN(c3nncs3)C4)CC2)c(OCC2CCOCC2)c1 [Example 1I, (R)-2-(6-(4-(2-((tetrahydro-2H-pyran-4-yl)methoxy)phenyl)piperidin-1-yl)-2-azaspiro[3.4]octan-2-yl)-1,3,4-thiadiazole] | 0% | > 25000 nM | 61% | 4 nM |
| c1ccc(C2CCN([C@@H]3CCC4(C3)CN(c3nnco3)C4)CC2)c(OC2CCOCC2)c1 [Example 2F, (R)-2-(6-(4-(2-((tetrahydro-2H-pyran-4-yl)oxy)phenyl)piperidin-1-yl)-2-azaspiro[3.4]octan-2-yl)-1,3,4-oxadiazole] | 0% | > 25000 nM | 88% | 7 nM |
| c1ccc(C2CCN([C@@H]3CCC4(C3)CN(c3nnco3)C4)CC2)c(OC2CC3(COC3)C2)c1 [Example 1A, (R)-2-(6-(4-(2-((2-oxaspiro[3.3]heptan-6-yl)oxy)phenyl)piperidin-1-yl)-2-azaspiro[3.4]octan-2-yl)-1,3,4-oxadiazole] | 0% | > 25000 nM | 81% | 1 nM |
| CC(C)(O)COc1ccccc1C1CCN([C@@H]2CCC3(C2)CN(c2ncns2)C3)CC1 [Example 3K, (R)-1-(2-(1-(2-(1,2,4-thiadiazol-5-yl)-2-azaspiro[3.4]octan-6-yl)piperidin-4-yl)phenoxy)-2-methylpropan-2-ol] | 0% | > 25000 nM | 68% | 5 nM |
| c1ccc(C2CCN([C@@H]3CCC4(C3)CN(c3nncs3)C4)CC2)c(OCC2COC2)c1 [Example 1G, (R)-2-(6-(4-(2-(oxetan-3-ylmethoxy)phenyl)piperidin-1-yl)-2-azaspiro[3.4]octan-2-yl)-1,3,4-thiadiazole] | 0% | > 25000 nM | 82% | 1 nM |
| COCCOc1ccccc1C1CCN([C@@H]2CCC3(C2)CN(c2nnco2)C3)CC1 [Example 2C] | 0% | > 25000 nM | 72% | 1 nM |
| c1ccc(C2CCN([C@@H]3CCC4(C3)CN(c3nnco3)C4)CC2)c(O[C@@H]2CCOC2)c1 [Example 2B, 2-((R)-6-(4-(2-(((R)-tetrahydrofuran-3-yl)oxy)phenyl)piperidin-1-yl)-2-azaspiro[3.4]octan-2-yl)-1,3,4-oxadiazole] | 0% | > 25000 nM | 95% | < 0.4 nM |
| c1ccc(C2CCN([C@@H]3CCC4(C3)CN(c3cncnc3)C4)CC2)c(OC2CCOCC2)c1 [Example 1L, (R)-2-(pyrimidin-5-yl)-6-(4-(2-((tetrahydro-2H-pyran-4-yl)oxy)phenyl)piperidin-1-yl)-2-azaspiro[3.4]octane] | 0% | > 25000 nM | 67% | 2 nM |
| c1ccc(C2CCN([C@@H]3CCC4(C3)CN(c3nnco3)C4)CC2)c(OC2COC2)c1 [Example 1D, (R)-2-(6-(4-(2-(oxetan-3-yloxy)phenyl)piperidin-1-yl)-2-azaspiro[3.4]octan-2-yl)-1,3,4-oxadiazole] | 0% | > 25000 nM | 79% | 1 nM |
| FC1(COc2ccccc2C2CCN([C@@H]3CCC4(C3)CN(c3nncs3)C4)CC2)COC1 [Example 1H, (R)-2-(6-(4-(2-((3-fluorooxetan-3-yl)methoxy)phenyl)piperidin-1-yl)-2-azaspiro[3.4]octan-2-yl)-1,3,4-thiadiazole] | 0% | > 25000 nM | 71% | 1 nM |
| c1ccc(C2CCN([C@@H]3CCC4(C3)CN(c3cncnc3)C4)CC2)c(OC2CC3(COC3)C2)c1 [Example 1O, (R)-6-(4-(2-((2-oxaspiro[3.3]heptan-6-yl)oxy)phenyl)piperidin-1-yl)-2-(pyrimidin-5-yl)-2-azaspiro[3.4]octane] | 0% | > 25000 nM | 59% | 3 nM |
| Fc1ccc(C2CCOC2)c(C2CCN([C@@H]3CCC4(C3)CN(c3nnco3)C4)CC2)c1 (mixture of isomers) [Example 2J, 2-((6R)-6-(4-(5-fluoro-2-(tetrahydrofuran-3-yl)phenyl)piperidin-1-yl)-2-azaspiro[3.4]octan-2-yl)-1,3,4-oxadiazole] | 0% | > 25000 nM | 92% | 2 nM |

— patent US12122761B2, “2-azaspiro[3.4]octane derivatives as M4 agonists” (NOVARTIS AG, priority 2019, dated 2024)
